Measurements from PMC11423305, “Structure-Based Design of CBP/EP300 Degraders: When Cooperativity Overcomes Affinity” (JACS Au, 2024).
Entries after “also recorded” stand apart in the source; their conditions may differ. Where two headings read alike, the source gives them in different places.

What was measured:
MM1S cells = assay: Cell viability (resazurin), MM1S; format: cell-based; conditions: Homo sapiens, MM1.S, 72 h, 3 days
Procedure: (§1) The primer sequences used were:
(§2) Gene Gene ID Forward Primer (5’-3’) Reverse primer (5’-3’)
(§3) myc NM_001354870.1 GTAGTGGAAAACCAGCC […]
crebbp NM_004380.3 TGTCACAGGGACAGGTGC […]
Cells were plated onto 96 well plates at the following densities in 90 μl volume: 3x104
LP1 cells/well or 5x10^3 LNCaP cells/well both plated same day as treatment, or 2x104
MM1S cells/well or 1.5x10^3 SH-SY5Y cells/well both plated day prior to treatment.
Compounds were added in 10 μl to give the stated concentrations with a final
concentration of 0.1 % DMSO. Following 3 days of compound treatment, resazurin
(Acros Organics, 189900010) was added at a f inal concentration of 86 μM and incubated
for the following times: MM1S 5 h, LP1 3 h, LNCaP 1 h 30 min, SH-SY5Y 6 h.
(§4) Fluorescence (excitation = 560 nm, emission = 590 nm) was measured using a
spectraMax M5 microplate reader (Molecular Devices) and cell viability was calculated
relative to DMSO treated cells on the same plate. Data was fitted using a four -parameter
dose-response curve in GraphPad Prism v. 9.5.1, where the top is fixed at 100 %. GI50
values were calculated as the concentration required to inhibit cell viability to 50 %
relative to DMSO treated cells after 3 days.
Sample digestion and clean up: Treated cells were washed in PBS and cell pellets
were then lysed in 4 % SDS/Tris-HCl, treated with High Intensity Focused Ultrasound […]

SH-SY5Y cells = assay: Cell viability (resazurin), SH-SY5Y; format: cell-based; conditions: 3 day treatment
Procedure: normalized to DMSO treated lanes on the same membrane. (Several compounds were
measured at the same time, so DMSO treated lanes are replicated here between
Figure S5. Anti-proliferation in additional cell lines. LNCaP (A and C) and SH-SY5Y (B)
cell viability following 3 day compound treatment, and LNCaP following 6 day treatment
(D), determined using resazurin.
After 3 days of treatment, dCE-2 only has a mild effect on the proliferation of LNCaP and
SH-SY5Y cells (Figure S5A and B).
the new CBP/EP300 PROTACs CBPD -268 and CBPD-4092,3 which have enhanced anti-
proliferative activity in LNcaP cells relative to their parent inhibitor s. However, although
these PROTACs have effects at very low concentrations, their effect plateaus and a
substantial proportion of cells remain viable at high compound concentrations. Similarly,
degradation of CBP and EP300, the maximal effect of this PROTAC is also limited under
the conditions we used (Figure S5C). Through this work it was clear to us that these […]
as §1, §2, §3, §4
spectraMax M5 microplate reader (Molecular Devices) and cell viability was calculated […]
values were calculated as the concentration required to inhibit cell viability to 50 % […]

[1] = molecular target: CRBN and CBP catalytic core (Homo sapiens, UniProt Q92793+Q96SW2); assay: FluoPPI cellular ternary complex formation, CBP catalytic core; format: cell-based; conditions: U2OS cells, 6 h
CBP-BRD [2] = molecular target: T1, CBP-BRD (Homo sapiens, UniProt Q92793); assay: TR-FRET competition with acetylated peptide binding to CBP-BRD, with and without CRBN (cooperativity); parameters: GST-CBP (human, residues 1081-1197); made in house; host or cells: Rosetta (DE3) cells (E. coli)
CBP-BRD [3] = molecular target: T1, CBP-BRD; assay: BROMOscan ligand binding site-directed competition assay, CBP; parameters: T7 phage display fusion with DNA tag for qPCR; purchased Eurofins Discovery (BROMOscan service); host or cells: E. coli infected with T7 phage
Procedure: 2. Methods and General Procedures […]
KD values were determined using BROMOscan™ technology, carried out by Eurofins […]
Discovery according to their standard protocol. Briefly E. coli were infected with T7 phage […]
strains displaying bromodomains and bromodomain protein was subsequently purified […]
through lysis, centrifugation and filtration. Affinity resins were generated by incubation of […]
streptavidin-coated magnetic beads with biotinylated small molecules or acetylated […]
peptide ligands. Binding reactions were assembled by combining the bromodomains and […]
liganded affinity beads in binding buffer (17 % SeaBlock, 0.33x PBS, 0.04 % Tween 20, […]
0.02 % BSA, 0.004 % sodium azide and 7.4 mM DTT) with compounds (11-point, 3-fold […]
dilution series) added to give a final DMSO concentration of 0.09 %. Assay plates were […]
incubated for 1 h, prior to washing and elution of beads. The bromodomain concentration […]
in the eluates was measured by qPCR of the DNA tag on the bromodomain.
KD values were calculated with a standard dose-response curve fitted using the Hill […]
Response = Background + Signal − Background […]
The Hill Slope was set to -1 and curves fitted using a non-linear least square fit with the Levenberg-Marquardt algorithm.
Ligand efficiency (LE) was calculated as follows: LE = 1.4(pIC50)/N

CRBN and CBP catalytic core, sequence (Q92793 1081-1700): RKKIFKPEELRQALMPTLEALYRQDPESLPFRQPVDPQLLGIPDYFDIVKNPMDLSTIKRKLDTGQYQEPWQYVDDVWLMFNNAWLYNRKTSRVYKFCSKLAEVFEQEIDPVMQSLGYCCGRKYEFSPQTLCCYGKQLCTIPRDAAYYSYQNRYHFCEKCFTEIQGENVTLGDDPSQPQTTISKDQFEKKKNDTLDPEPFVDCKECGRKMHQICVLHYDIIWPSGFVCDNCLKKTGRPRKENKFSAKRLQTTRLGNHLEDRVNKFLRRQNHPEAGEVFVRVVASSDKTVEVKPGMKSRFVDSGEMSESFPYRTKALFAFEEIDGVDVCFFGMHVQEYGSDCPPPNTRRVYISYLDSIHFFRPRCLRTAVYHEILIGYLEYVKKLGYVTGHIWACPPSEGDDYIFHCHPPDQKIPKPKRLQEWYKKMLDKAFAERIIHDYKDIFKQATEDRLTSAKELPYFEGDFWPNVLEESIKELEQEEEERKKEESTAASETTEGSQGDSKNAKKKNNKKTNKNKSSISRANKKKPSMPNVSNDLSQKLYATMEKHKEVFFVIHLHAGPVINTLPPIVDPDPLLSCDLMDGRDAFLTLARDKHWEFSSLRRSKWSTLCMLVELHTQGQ
CRBN and CBP catalytic core, sequence (Q96SW2 whole entry, the tested form may be a part): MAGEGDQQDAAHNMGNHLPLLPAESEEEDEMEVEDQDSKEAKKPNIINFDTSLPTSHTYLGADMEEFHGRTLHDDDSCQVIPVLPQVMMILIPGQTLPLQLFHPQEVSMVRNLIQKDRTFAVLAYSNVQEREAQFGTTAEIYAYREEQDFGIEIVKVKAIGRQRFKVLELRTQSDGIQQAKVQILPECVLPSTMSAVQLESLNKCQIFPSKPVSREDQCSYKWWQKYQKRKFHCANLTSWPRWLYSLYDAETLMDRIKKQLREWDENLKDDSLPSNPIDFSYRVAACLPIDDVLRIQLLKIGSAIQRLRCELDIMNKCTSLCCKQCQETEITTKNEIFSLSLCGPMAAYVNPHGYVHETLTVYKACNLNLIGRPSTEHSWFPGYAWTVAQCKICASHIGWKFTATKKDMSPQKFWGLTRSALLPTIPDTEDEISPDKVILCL

Cc1cc2c(NC(=O)c3cc(NC(=O)CCCCCCCCCCNc4cccc5c4C(=O)N(C4CCC(=O)NC4=O)C5=O)cc(-c4ccn(C)n4)c3)cccc2nn1 (stereo not shown) [dCE-2]
GI50 (MM1S cells): 35 nM
effect on proliferation of SH-SY5Y cells (SH-SY5Y cells): mild effect; also recorded: limited effect
ternary complex formation in cells with CBP catalytic core [1]: able to induce ternary complex formation
IC50 (CBP-BRD [2]; absence of CRBN, read-out: CBP-BRD IC50 (binary, IC50[control])): 150 nM
IC50 (CBP-BRD [2]; presence of high concentrations of CRBN C-terminal thalidomide binding domain, read-out: ternary IC50 (IC50[CRBN])): 45 nM
Kd (CBP-BRD [3]; BROMOscan): 1300 nM
loss of potency compared to parent compound 3, CBP (CBP-BRD [3]; BROMOscan KD ratio): > 40 fold
